Activity calls are given as the source filed them. The rule behind the calls is not given here. Some results are limits rather than exact numbers.

The source of these data is ChEMBL document CHEMBL4834409 (J Med Chem, 2021).

For data set [1], the target named is T1, Melatonin receptor type 1A (Homo sapiens, UniProt P48039). The data set can be described thus: Displacement of 2-[125l]-lodomelatonin from human MT1 expressed in CHO cell membrane incubated for 150 mins by radioligand binding assay. In kind it is cell membranes.
T1 sequence (P48039 whole entry): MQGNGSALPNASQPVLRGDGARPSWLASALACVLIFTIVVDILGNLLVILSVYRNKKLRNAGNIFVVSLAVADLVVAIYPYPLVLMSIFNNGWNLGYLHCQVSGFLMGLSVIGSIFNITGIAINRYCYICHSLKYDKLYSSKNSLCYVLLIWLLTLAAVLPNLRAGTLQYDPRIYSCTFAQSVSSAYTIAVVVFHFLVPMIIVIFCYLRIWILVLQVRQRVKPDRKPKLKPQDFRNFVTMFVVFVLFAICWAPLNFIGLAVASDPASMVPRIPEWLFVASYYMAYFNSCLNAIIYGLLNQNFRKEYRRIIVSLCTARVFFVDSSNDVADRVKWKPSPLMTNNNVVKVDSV
The target in data set [2] is T2, Melatonin receptor type 1B (Homo sapiens, UniProt P49286).
T2 sequence (P49286 whole entry): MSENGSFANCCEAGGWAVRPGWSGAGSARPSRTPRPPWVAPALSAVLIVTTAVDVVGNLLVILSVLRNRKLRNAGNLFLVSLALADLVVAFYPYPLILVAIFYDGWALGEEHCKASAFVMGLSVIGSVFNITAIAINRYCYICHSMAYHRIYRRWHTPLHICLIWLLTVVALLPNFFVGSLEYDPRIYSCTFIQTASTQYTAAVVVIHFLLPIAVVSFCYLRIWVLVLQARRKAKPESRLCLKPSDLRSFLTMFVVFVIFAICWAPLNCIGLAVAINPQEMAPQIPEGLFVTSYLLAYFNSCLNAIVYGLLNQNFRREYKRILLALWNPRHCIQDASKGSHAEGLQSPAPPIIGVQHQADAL
Put plainly: Displacement of 2-[125l]-lodomelatonin from human MT2 expressed in CHO cell membrane incubated for 150 mins by radioligand binding assay. In kind it is cell membranes.

Data set [3] in a line: Clearance in rat hepatic microsomes at 1 umol/L incubated for 20 mins in presence of NADPH generating system by HPLC-UV analysis. The conditions noted are these: liver microsomes, dose 1 µmol/L, read-out: CLH. The format is ADME, Microsome.
A short description of data set [4]: Clearance in human hepatic microsomes at 1 umol/L incubated for 20 mins in presence of NADPH generating system by HPLC-UV analysis. The format is ADME, Microsome. The conditions noted are these: liver microsomes, dose 1 µmol/L, read-out: CLH. On the technique in general: Microsomes from liver hold many membrane-bound enzymes, among them those of drug oxidation.

Data set [5] is described as follows: Oral bioavailability in Sprague-Dawley rat at 1 mg/kg administered as casette dosing by LC/MS/MS analysis. Conditions: in vivo. In kind it is ADME, organism-based.
Data set [6] concerns the target T1, Melatonin receptor type 1A. The data set can be described thus: Displacement of 2-[125l]-lodomelatonin from human MT1 expressed in CHO cell membrane at 100 nM incubated for 150 mins by radioligand binding assay relative to control. The format is cell membranes.
Data set [7] deals with T3, Melatonin receptor type 1B (Homo sapiens) (UniProt P49286).
T3 sequence (whole entry): T2 sequence (P49286 whole entry)
Put plainly: Displacement of 2-[125l]-lodomelatonin from human MT2 expressed in CHO cell membrane at 100 nM incubated for 150 mins by radioligand binding assay relative to control. In kind it is cell membranes.

In data set [8] the target is T1, Melatonin receptor type 1A. The data set can be described thus: Binding affinity to human MT1 expressed in CHO cells. The format is cell-based.
A short description of data set [9]: Ratio of drug concentration in brain to plasma in Sprague-Dawley rat at 1 mg/kg, po after 60 mins by LC/MS/MS analysis. In kind it is ADME, organism-based. Conditions: read-out: BPR.
Data set [10] in a line: Drug concentration in Sprague-Dawley rat brain at 1 mg/kg, po after 60 mins by LC/MS/MS analysis. The conditions noted are these: read-out: Ct. In kind it is ADME, organism-based.
The nature of data set [11]: Oral bioavailability in Sprague-Dawley rat at 1 mg/kg by LC/MS/MS analysis. The format is ADME, organism-based. The conditions noted are these: in vivo.
Data set [12] can be described thus: Drug concentration in Sprague-Dawley rat plasma at 1 mg/kg, po after 60 mins by LC/MS/MS analysis. In kind it is ADME, organism-based.
Data set [13] has as its target T2, Melatonin receptor type 1B. Put plainly: Binding affinity to human MT2 expressed in CHO cells. In kind it is cell-based.
For data set [14], the target named is T2, Melatonin receptor type 1B. The data set can be described thus: Agonist activity at human MT2 expressed in CHO-K1 cells assessed as inhibition of forskolin-induced cAMP accumulation incubated for 30 mins by AlphaScreen assay. The format is functional, cell-based.
The subject of a further data set is Felis catus. The data set can be described thus: Hypnotic activity in cats assessed as increase in total sleep time at 10 mg/kg, po after 8 hrs by EEG analysis. The format is functional, organism-based.
Data set [15] has as its target T1, Melatonin receptor type 1A. The data set can be described thus: Agonist activity at human MT1 expressed in CHO-K1 cells assessed as inhibition of forskolin-induced cAMP accumulation incubated for 30 mins by AlphaScreen assay. The format is functional, cell-based. For orientation: Cyclic AMP is a second messenger, typically raised through Gs and lowered through Gi signalling.

Data set [16] in a line: Drug concentration in Sprague-Dawley rat brain at 0.1 mg/kg, po after 60 mins by LC/MS/MS analysis. The format is ADME, organism-based. The conditions noted are these: read-out: Ct.
Data set [17] can be described thus: Ratio of drug concentration in brain to plasma in Sprague-Dawley rat at 0.1 mg/kg, po after 60 mins by LC/MS/MS analysis. In kind it is ADME, organism-based. Conditions: read-out: BPR.
Data set [18] is described as follows: Drug concentration in Sprague-Dawley rat plasma at 0.1 mg/kg, po after 60 mins by LC/MS/MS analysis. In kind it is ADME, organism-based.

In general, Ki refers to a measure of affinity in units of concentration, obtained from inhibition or displacement. A low value points to a stronger hold on the target. Regarding `CC(=O)NCCC1CCc2ccc3nc(C4CC4)oc3c21` (centres undefined), the results for the Ki in data set [1] and in [2] were 0.39 nM and 0.15 nM, respectively.

On to `CC(=O)NCCC1CCc2ccc3ncoc3c21` (centres undefined), for which the results for the Ki in data set [1] and in data set [2] were 0.45 nM and 0.073 nM, respectively.

Take `CCc1nc2ccc3c(c2o1)C(CCNC(C)=O)CC3` (centres undefined): the figures for the Ki in data set [1] and in data set [2] were 0.22 nM and 0.16 nM, respectively.

With `CC(=O)NCCC1CCc2ccc3nc(Cc4ccccc4)oc3c21` (centres undefined), the inhibitory constant (Ki) amounted to 4.4 nM in data set [1] and 0.12 nM in [2].

Take `CCC(=O)NCCC1CCc2ccn3nc(C)cc3c21` (centres undefined): the inhibition constant (Ki) turned out to be 0.17 nM in [1] and 0.95 nM in data set [2]. Also, the results for the microsomal CLint at 1 µM in [3] and in [4] were 84 µL/min/mg and 20 µL/min/mg, respectively.

As a reminder, the bioavailability is the share of a dose that reaches the circulation, judged against a reference dose that is usually intravenous. A high value points to good availability. For `CC(=O)NCCC1CCc2ccc3nn(C)cc3c21` (centres undefined), the values for the Ki in data set [1] and in data set [2] were 0.35 nM and 0.75 nM, respectively. In addition, the values for the microsomal CLint at 1 µM in [3] and in [4] were 44 µL/min/mg and 5 µL/min/mg, respectively. In data set [5], this compound came in with a bioavailability of 20.9%.

As to `CCC(=O)NCCC1CCc2ccc3nc(C)oc3c21` (centres undefined), the Ki is 0.067 nM in data set [1] and 0.088 nM in data set [2]. Further, the microsomal CLint at 1 µM in data set [3] is 96 µL/min/mg; in [4], 29 µL/min/mg. In addition, the bioavailability in data set [5] stood at 6.8%.

Consider `CC(=O)NCCC1CCc2ccc3nc(C)sc3c21` (centres undefined), for which the results for the Ki in data set [1] and in [2] were 0.037 nM and 0.086 nM, respectively. The microsomal CLint at 1 µM in data set [3] is 188 µL/min/mg; in data set [4], 45 µL/min/mg. This compound also showed a bioavailability in data set [5] of 4.8%.

Turning to `CC(=O)NCC[C@H]1CCc2ccc3nc(C)oc3c21`, the Ki in [1] came to 23 nM; in data set [2] it was 6.1 nM.

Consider `CCC(=O)NCCC1CCc2ccc3nn(C)cc3c21` (centres undefined), for which the Ki in data set [1] came to 0.3 nM; in [2] it was 0.35 nM. Besides, the microsomal CLint at 1 µM in data set [3] amounted to 79 µL/min/mg; in data set [4], 23 µL/min/mg. The same compound returned a bioavailability in data set [5] of 13.7%.

Consider `CC(=O)NCCC1CCc2ccc3nc(-c4ccccc4)oc3c21` (centres undefined), for which the Ki was 1.3 nM in data set [1] and 0.23 nM in [2].

The inhibition is the drop in the measured response relative to a control, in per cent. As to `CCOC(=O)c1c(C)nn2ccc3c(c12)C(CCNC(C)=O)CC3` (centres undefined), the inhibition in [6] and in data set [7] was less than 50% throughout.

As to `CCC(=O)NCCC1CCc2ccc3nc(C)sc3c21` (centres undefined), the inhibition constant Ki in data set [1] worked out at 0.027 nM; in data set [2], 0.058 nM. The microsomal CLint at 1 µM amounted to 379 µL/min/mg in data set [3] and 41 µL/min/mg in data set [4]. In data set [5], this compound registered a bioavailability of 3.2%.

With `CC(=O)NCCC1CCc2ccn3nc(C)c(C)c3c21` (centres undefined), the Ki in data set [1] is 9.3 nM. The same compound gave an inhibition in data set [7] of less than 50%.

As to `CC(=O)NCCC1CCc2ccc3nc(C)oc3c21` (racemic), the inhibitory constant (Ki) in [1] stood at 0.067 nM; in data set [2], 0.13 nM. Moreover, the microsomal CLint at 1 µM in data set [3] amounted to 34 µL/min/mg. Besides, the bioavailability in [5] worked out at 18.5%.

As to `CCC(=O)NCC[C@@H]1CCc2ccc3c(c21)CCO3` [RAMELTEON], the Ki amounted to 0.014 nM in data set [8] and 0.112 nM in [13]. Further, in data set [9], the Kp at 1 h came out at 1.1. The microsomal CLint at 1 µM in [3] was 126 µL/min/mg; in data set [4] it was 51 µL/min/mg. The concentration at 1 h in data set [10] amounted to 17 ng/g; in [12], 15 ng/mL. Also, the bioavailability in [11] turned out to be 8.5%.

One may read the EC50 as the concentration giving half of the maximal effect. Turning to `CC(=O)NCC[C@@H]1CCc2ccc3nc(C)oc3c21`, the inhibitory constant (Ki) in data set [1] was found to be 0.031 nM; in [2] it was 0.07 nM. Also, the EC50 was 0.51 nM in [14] and 0.015 nM in data set [15]. Also, the outcome in the data set on Felis catus was Active. The concentration at 1 h in data set [16] was 1.4 ng/g; in data set [18], 2.9 ng/mL. Also, the Kp at 1 h in [17] was found to be 0.48.

On to `COc1nc2ccc3c(c2o1)C(CCNC(C)=O)CC3` (centres undefined), for which the figures for the inhibition constant (Ki) in data set [1] and in data set [2] were 0.45 nM and 0.15 nM, respectively.

Take `CC(=O)NCCC1CCc2ccc3nc(CO)oc3c21` (centres undefined): the values for the inhibitory constant (Ki) in data set [1] and in [2] were 1.2 nM and 1.1 nM, respectively.

With `CC(=O)NCCC1CCc2ccn3nc(C)cc3c21` (centres undefined), the values for the inhibition constant Ki in data set [1] and in [2] were 0.2 nM and 1.4 nM, respectively. Besides, the microsomal CLint at 1 µM in [3] was determined as 42 µL/min/mg; in [4], 14 µL/min/mg. For the same compound, the bioavailability in data set [5] came to 14.3%.
